In patent publication US12612409B2, “Pyrrolopyrimidines as CFTR potentiators” (Cystic Fibrosis Foundation, priority 2016, dated 2026) one finds EC50 data, which are given here for 23 compounds.

Assay [1] has as its target T1, recombinant F508del V470 CFTR in Fischer rat thyroid (FRT) cells (Homo sapiens, UniProt P13569, DEL508-508).
T1 construct: expressed in transfected cells
The assay is described as follows: FRT ion flux assay of F508del CFTR potentiation. In kind it is cell-based. Conditions: FRT cells expressing F508del V470 CFTR, forskolin 20 uM, 27° C. pre-incubation. A digest of the protocol: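 FRT cells co-expressing F508del V470 CFTR and halide-sensitive YFP, temperature-corrected at 27° C for 16-24 h, then treated 30 min with compound plus 20 uM forskolin. Iodide addition quenches YFP, read after ~21 s; ratio scaled to DMSO (0%) and positive control potentiator (100%).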

The target in assay [2] is T2, CFTR in F508del/F508del primary CF hBE cells (Homo sapiens, UniProt P13569, DEL508-508).
T2 construct: Primary cystic fibrosis human bronchial epithelial (CF hBE) cells were expanded and cultured; endogenous in cells; host or cells: primary CF human bronchial epithelial cells, genotype F508del/F508del
T2 sequence (P13569 with tags, fused parts or gaps DEL508-508): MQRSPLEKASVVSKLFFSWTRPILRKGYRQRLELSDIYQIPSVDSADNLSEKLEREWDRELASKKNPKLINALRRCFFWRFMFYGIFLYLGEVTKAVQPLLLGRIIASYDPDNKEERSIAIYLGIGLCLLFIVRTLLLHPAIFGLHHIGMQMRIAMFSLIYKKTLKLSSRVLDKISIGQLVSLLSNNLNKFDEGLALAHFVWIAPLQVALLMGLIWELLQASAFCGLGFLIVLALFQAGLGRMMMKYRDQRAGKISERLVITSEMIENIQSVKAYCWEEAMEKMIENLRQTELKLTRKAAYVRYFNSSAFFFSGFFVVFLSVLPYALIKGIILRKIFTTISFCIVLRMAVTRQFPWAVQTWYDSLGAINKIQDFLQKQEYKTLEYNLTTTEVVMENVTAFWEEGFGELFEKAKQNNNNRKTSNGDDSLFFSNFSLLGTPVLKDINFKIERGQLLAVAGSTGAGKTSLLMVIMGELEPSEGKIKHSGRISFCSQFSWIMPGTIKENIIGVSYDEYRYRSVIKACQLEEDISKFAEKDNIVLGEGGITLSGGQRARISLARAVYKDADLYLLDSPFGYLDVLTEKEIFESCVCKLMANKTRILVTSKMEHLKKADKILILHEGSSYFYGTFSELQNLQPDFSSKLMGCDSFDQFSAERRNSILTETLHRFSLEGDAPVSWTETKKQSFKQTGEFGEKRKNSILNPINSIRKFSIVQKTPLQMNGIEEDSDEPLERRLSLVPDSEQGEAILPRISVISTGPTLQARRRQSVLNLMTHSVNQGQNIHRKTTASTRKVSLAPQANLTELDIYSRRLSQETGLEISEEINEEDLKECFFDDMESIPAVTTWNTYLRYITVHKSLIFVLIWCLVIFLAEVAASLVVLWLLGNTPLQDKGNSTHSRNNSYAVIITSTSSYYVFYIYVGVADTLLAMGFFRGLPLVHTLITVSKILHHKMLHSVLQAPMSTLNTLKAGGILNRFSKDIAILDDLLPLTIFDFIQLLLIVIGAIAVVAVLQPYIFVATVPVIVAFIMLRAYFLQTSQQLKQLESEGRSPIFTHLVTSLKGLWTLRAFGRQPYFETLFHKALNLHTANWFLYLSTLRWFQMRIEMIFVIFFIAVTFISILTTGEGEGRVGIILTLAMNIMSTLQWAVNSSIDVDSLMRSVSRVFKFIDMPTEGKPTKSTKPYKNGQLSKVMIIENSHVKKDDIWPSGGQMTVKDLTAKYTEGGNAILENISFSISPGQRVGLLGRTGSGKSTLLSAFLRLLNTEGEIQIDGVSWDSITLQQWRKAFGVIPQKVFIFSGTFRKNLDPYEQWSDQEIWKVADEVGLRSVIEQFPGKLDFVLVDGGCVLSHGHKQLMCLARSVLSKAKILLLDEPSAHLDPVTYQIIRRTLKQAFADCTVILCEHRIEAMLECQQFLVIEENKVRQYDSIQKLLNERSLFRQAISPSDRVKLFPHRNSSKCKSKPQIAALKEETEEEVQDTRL
Description: Ussing chamber electrophysiology assay of CFTR potentiation in F508del/F508del CF bronchial epithelial cells (27° C.). The assay is classed as cell-based. Summed up:
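Well-differentiated primary CF hBE cells (>30 days air/liquid interface) in Ussing chambers, HEPES saline both sides, voltage clamped to zero. Amiloride 30 uM, forskolin 10 uM, four rising compound concentrations, then CFTRinh-172 20 uM added at 20-25 min intervals. Short-circuit current scaled to DMSO (0%) and a positive control potentiator maximum (100%).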

T1 sequence (P13569 with tags, fused parts or gaps DEL508-508): as above

As a reminder, the EC50 is the concentration that produces a half-maximal response. On to `COc1ncccc1-c1cn(Cc2cn(-c3ccccc3F)nn2)c2nc(C)nc(N)c12` [Example 202, 7-{[1-(2-Fluorophenyl)-1H-1,2,3-triazol-4-yl]methyl}-5-(2-methoxypyridin-3-yl)-2-methyl-7H-pyrrolo[2,3-d]pyrimidin-4-amine], for which the 50% effective concentration (EC50) in assay [1] came out at 922 nM; in assay [2], 798 nM.
Turning to `CC(C)c1cc(Cn2cc(-c3ccc(Cl)cc3)c3c(N)ncnc32)on1` [Example 283, 5-(4-Chlorophenyl)-7-{[3-(propan-2-yl)-1,2-oxazol-5-yl]methyl}-7H-pyrrolo[2,3-d]pyrimidin-4-amine], the EC50 in assay [1] was found to be 659 nM; in assay [2], 111 nM.
On to `COc1ncc(F)cc1-c1cn(Cc2cn(-c3ccccc3F)nn2)c2ncnc(N)c12` [Example 195, 5-(5-Fluoro-2-methoxypyridin-3-yl)-7-{[1-(2-fluorophenyl)-1H-1,2,3-triazol-4-yl]methyl}-7H-pyrrolo[2,3-d]pyrimidin-4-amine], for which the concentration giving a half-maximal response (EC50) in assay [1] was 63.6 nM; in assay [2] it was 25.3 nM.
Consider `COc1ncccc1-c1cn(C(C)c2cn(-c3ccccc3F)nn2)c2ncnc(N)c12` (single isomer, unassigned; enantiomer 2) [Example 114, (+) 7-{1-[1-(2-Fluorophenyl)-1H-1,2,3-triazol-4-yl]ethyl}-5-(2-methoxypyridin-3-yl)-7H-pyrrolo[2,3-d]pyrimidin-4-amine, enantiomer 2], for which the EC50 in assay [1] came out at 36.2 nM; in assay [2], 75.8 nM.
On the same counts, the results for `CCC(c1cn(-c2cc(F)ccc2F)nn1)n1cc(-c2cnc(C(F)(F)F)nc2)c2c(N)ncnc21` (single isomer, unassigned) [Example 186, 7-{1-[1-(2,5-difluorophenyl)-1H-1,2,3-triazol-4-yl]propyl}-5-[2-(trifluoromethyl)pyrimidin-5-yl]-7H-pyrrolo[2,3-d]pyrimidin-4-amine] are 631 nM and 297 nM.
For `CCC(c1cn(-c2ccc(F)cc2F)nn1)n1cc(-c2cncnc2OC)c2c(N)ncnc21` (single isomer, unassigned; enantiomer 1) [Example 159, (+) 7-{1-[1-(2,4-Difluorophenyl)-1H-1,2,3-triazol-4-yl]propyl}-5-(4-methoxypyrimidin-5-yl)-7H-pyrrolo[2,3-d]pyrimidin-4-amine, enantiomer 1] the same measures were 18.5 nM and 35.5 nM.
For `Nc1ncnc2c1c(-c1cnco1)cn2Cc1cn(-c2ccccc2F)nn1` [Example 197, 7-{[1-(2-Fluorophenyl)-1H-1,2,3-triazol-4-yl]methyl}-5-(1,3-oxazol-5-yl)-7H-pyrrolo[2,3-d]pyrimidin-4-amine] the same measures were 254 nM and 811 nM.
On to `COc1nc(C(F)(F)F)ccc1-c1cn(Cc2cn(-c3ccccc3F)nn2)c2ncnc(N)c12` [Example 206, 7-{[1-(2-fluorophenyl)-1H-1,2,3-triazol-4-yl]methyl}-5-[2-methoxy-6-(trifluoromethyl)pyridin-3-yl]-7H-pyrrolo[2,3-d]pyrimidin-4-amine], for which the concentration for a half-maximal effect (EC50) in assay [1] came to 22.9 nM; in assay [2] it was 10.8 nM.
As to `CCC(c1cn(-c2ccc(F)c(F)c2)nn1)n1c(C#N)c(-c2cnc(C(F)(F)F)nc2)c2c(N)ncnc21` (single isomer, unassigned; enantiomer 1) [Example 322, 4-Amino-7-{1-[1-(3,4-difluorophenyl)-1H-1,2,3-triazol-4-yl]propyl}-5-[2-(trifluoromethyl)pyrimidin-5-yl]-7H-pyrrolo[2,3-d]pyrimidine-6-carbonitrile, enantiomer 1], the EC50 is 49.9 nM in assay [1] and 33.8 nM in assay [2].
For `CCC(c1cn(-c2ccc(OC)nc2)nn1)n1cc(-c2cnc(C(F)(F)F)nc2)c2c(N)ncnc21` (single isomer, unassigned; enantiomer 1) [Example 309, 7-{1-[1-(6-Methoxypyridin-3-yl)-1H-1,2,3-triazol-4-yl]propyl}-5-[2-(trifluoromethyl)pyrimidin-5-yl]-7H-pyrrolo[2,3-d]pyrimidin-4-amine, enantiomer 1] the same measures were 69 nM and 69 nM.
On the same counts, the results for `CC(c1cn(-c2ccccc2F)nn1)n1cc(-c2ccc(OC3CC3)cc2)c2c(N)ncnc21` (stereo not shown) [Example 212, 5-[4-(Cyclopropyloxy)phenyl]-7-{1-[1-(2-fluorophenyl)-1H-1,2,3-triazol-4-yl]ethyl}-7H-pyrrolo[2,3-d]pyrimidin-4-amine] are 68.2 nM and 12.2 nM.
In the case of `COc1ncccc1-c1cn(Cc2cnc(-c3ccccc3F)[nH]2)c2ncnc(N)c12` [Example 193, 7-{[2-(2-Fluorophenyl)-1H-imidazol-5-yl]methyl}-5-(2-methoxypyridin-3-yl)-7H-pyrrolo[2,3-d]pyrimidin-4-amine], the EC50 in assay [1] amounted to 43.8 nM; in assay [2], 117 nM.
For `CC(c1cn(CC2CCC2)nn1)n1cc(-c2ccc(Cl)cc2)c2c(N)ncnc21` (stereo not shown) [Example 255, 5-(4-Chlorophenyl)-7-{1-[1-(cyclobutylmethyl)-1H-1,2,3-triazol-4-yl]ethyl}-7H-pyrrolo[2,3-d]pyrimidin-4-amine] the same measures were 259 nM and 64.7 nM.
On the same counts, the results for `CC(c1cn(-c2ccccc2F)nn1)n1cc(-c2ccc(OC3CC3)nc2)c2c(N)ncnc21` (stereo not shown) [Example 213, 5-[6-(Cyclopropyloxy)pyridin-3-yl]-7-{1-[1-(2-fluorophenyl)-1H-1,2,3-triazol-4-yl]ethyl}-7H-pyrrolo[2,3-d]pyrimidin-4-amine] are 58.6 nM and 23.1 nM.
For `COc1ncncc1-c1cn(C(c2cn(-c3ccccc3F)nn2)C2CC2)c2ncnc(N)c12` (single isomer, unassigned; enantiomer 2) [Example 300, (−) 7-{Cyclopropyl[1-(2-fluorophenyl)-1H-1,2,3-triazol-4-yl]methyl}-5-(4-methoxypyrimidin-5-yl)-7H-pyrrolo[2,3-d]pyrimidin-4-amine, enantiomer 2] the same measures were 154 nM and 453 nM.
In the case of `COc1ncc(-c2c(C#N)n(C(C)c3cc(-c4ccccc4F)no3)c3ncnc(N)c23)cn1` (single isomer, unassigned) [Example 14, 4-amino-7-{1-[3-(2-fluorophenyl)-1,2-oxazol-5-yl]ethyl}-5-(2-methoxypyrimidin-5-yl)-7H-pyrrolo[2,3-d]pyrimidine-6-carbonitrile], the EC50 was found to be 23.6 nM in assay [1] and 13 nM in assay [2].
On the same counts, the results for `COc1cccc(-c2cc(C(C)n3cc(-c4ccc(Cl)cc4)c4c(N)ncnc43)on2)c1` (stereo not shown) [Example 261, 5-(4-Chlorophenyl)-7-{1-[3-(3-methoxyphenyl)-1,2-oxazol-5-yl]ethyl}-7H-pyrrolo[2,3-d]pyrimidin-4-amine] are 169 nM and 232 nM.
For `CCC(c1cn(-c2ccccc2F)nn1)n1cc(-c2cncnc2OC)c2c(N)nc(C)nc21` (single isomer, unassigned; (+)) [Example 303, (+) 7-{1-[1-(2-Fluorophenyl)-1H-1,2,3-triazol-4-yl]propyl}-5-(4-methoxypyrimidin-5-yl)-2-methyl-7H-pyrrolo[2,3-d]pyrimidin-4-amine] the same measures were 2740 nM and 1640 nM.
For `COc1ncccc1-c1cn(C(C)c2cn(-c3ccccc3F)nn2)c2ncnc(N)c12` (single isomer, unassigned) [Example 113, 7-{1-[1-(2-Fluorophenyl)-1H-1,2,3-triazol-4-yl]ethyl}-5-(2-methoxypyridin-3-yl)-7H-pyrrolo[2,3-d]pyrimidin-4-amine] the same measures were 826 nM and 818 nM.
Regarding `CCC(c1cn(-c2cccc(F)c2F)nn1)n1cc(-c2cncnc2OC)c2c(N)ncnc21` (single isomer, unassigned; enantiomer 2) [Example 306, (+) 7-{1-[1-(2,3-Difluorophenyl)-1H-1,2,3-triazol-4-yl]propyl}-5-(4-methoxypyrimidin-5-yl)-7H-pyrrolo[2,3-d]pyrimidin-4-amine, enantiomer 2], the EC50 is 22.2 nM in assay [1] and 26.1 nM in assay [2].
Consider `CCC(c1cn(-c2ccccc2F)nn1)n1cc(-c2ccc(Cl)cc2)c2c(N)ncnc21` (single isomer, unassigned; enantiomer 2) [Example 132, (+) 5-(4-Chlorophenyl)-7-{1-[1-(2-fluorophenyl)-1H-1,2,3-triazol-4-yl]propyl}-7H-pyrrolo[2,3-d]pyrimidin-4-amine, enantiomer 2], for which the half-maximal effective concentration (EC50) is 38 nM in assay [1] and 11.3 nM in assay [2].
For `COc1ccc(-c2cn(C(C)c3cn(-c4ccccc4F)nn3)c3ncnc(N)c23)c(OC)c1` (stereo not shown) [Example 87, 5-(2,4-Dimethoxyphenyl)-7-{1-[1-(2-fluorophenyl)-1H-1,2,3-triazol-4-yl]ethyl}-7H-pyrrolo[2,3-d]pyrimidin-4-amine] the same measures were 102 nM and 55 nM.
For `CCC(c1cn(-c2ccccc2)nn1)n1cc(-c2ccc(OC)nc2)c2c(N)ncnc21` (single isomer, unassigned; enantiomer 1) [Example 125, 5-(6-Methoxypyridin-3-yl)-7-[1-(1-phenyl-1H-1,2,3-triazol-4-yl)propyl]-7H-pyrrolo[2,3-d]pyrimidin-4-amine, enantiomer 1] the same measures were 395 nM and 199 nM.
